Measurements as given in patent US9381142B2, “Olfactory adaptation and cross-adapting agents to reduce the perception of body odors” (Monell Chemical Senses Center, priority 2002, dated 2016).

How the values were obtained:
[1] = system: male stress-derived axillary odor; assay: Cross-adaptation of male stress-derived axillary odor (odor panel, magnitude estimation of perceived intensity); format: in vivo, human; conditions: for Magnitude of Reduction of Intensity of Male Stress-Derived Odor (MSDO), Males: male stress-derived odor perceived by men; for Magnitude of Reduction of Intensity of Male Stress-Derived Odor (MSDO), Females: male stress-derived odor perceived by women
Source text: (§1) The procedure relies upon an individual constantly sniffing an adapting agent, such as a fragrance, and occasionally a test odorant. Perceived intensity of the test odorant is obtained by using psychophysical, magnitude-estimation procedures. These perceived intensities are obtained every 30 seconds over the test period, and are then compared with baseline perceived intensities obtained before the individual began sniffing the adapting agent. Throughout the testing we observe adaptation to the adapting agent. Results during trials with an inserted test odorant, such as the axillary odor used here, are believed to be reasonably predictive. If the perceived intensity of the test odorant decreases during the test, then the adapting agent cross-adapts the test odorant and becomes a cross-adapting agent. If the cross-adapting agent is itself not offensive, then the cross-adapting agent becomes a candidate for use in formulations in consumer products to ameliorate malodors, such as axillary odor or fecal/urine odors, and odors related to the female menstrual cycle.
(§2) Collection of secretions: Apocrine secretions obtained under stressed conditions provided the axillary odor that was used as the test odorant to evaluate the effectiveness of various adapting agents. Secretions were obtained from males (ages 20 to 60 years) and females (ages 20 to 40 years) in good health. […] Volunteers prepared their axillae for collection of apocrine secretions by refraining from deodorant use for 3 days and shaving their axillae the morning of the collection day.
(§3) Volunteers were rested in a supine position. The axillary regions were washed with isopropanol-soaked pads and injected intradermally with 1:10,000 adrenalin (in physiologic saline). This injection stimulated the secretion of apocrine gland secretions, which were collected in 10 μl pipettes, passed into 0.25 ml Eppendorf tubes, and stored on ice (or frozen for longer storage). The amount of secretion collected varied greatly with the individual subject (≦10 μl). The apocrine secretions from each volunteer were combined by consecutively washing each Eppendorf tube with 2×300 μl of doubly distilled water. This aqueous-apocrine fluid was transferred to a 5 ml round-bottomed flask for hydrolysis. X-N. Zeng, J. J. Leyden, J. G. Brand, A. I. Spielman, K. J. McGinley, G. Preti, An Investigation of Human Apocrine Gland Secretion for Axillary Odor Precursors, 18 J. Chem. Ecol. 1039-1055 (1992); X-N. Zeng, J. J. Leyden, A. I. Spielman and G. Preti Analysis of the characteristic human female axillary odors: Qualitative comparison to males. 22 J. Chem. Ecol. 237-257 (1996).
(§4) Production of odor: To produce quantities of stress-derived axillary odor for testing purposes, we hydrolyzed the apocrine secretion. The aqueous solution was refluxed for 20 min with 0.5 ml, 5% aqueous sodium hydroxide under a stream of nitrogen. The mixture was allowed to cool to room temperature, and then it was cooled in ice prior to being acidified with 6 N HCl to pH 2. The resulting axillary odor developed in the reaction mixture upon acidification was used as the test odorant. The axillary odors generated by this in vitro technique are analogous to the malodors produced by stressed individuals.
Sixteen (16) individuals (8 of each gender) served on an odor panel. Subjects ranged in age from 22 to 55 years (mean 32.7±10.6 s.d.), were not pregnant (by verbal report), and were all non-smokers. All panel members were screened for adequate use of magnitude estimation (some people have difficulties maintaining a ratio scale, i.e., when an odorant is half as strong as the previous, these people fail to provide a number that is half the previous estimate) and further trained in its use during 2-3 training sessions. All 16 subjects were tested with samples of male malodor compared to each of the potential cross-adapting agents. […]

[2] = system: female stress-derived axillary odor; assay: Cross-adaptation of female stress-derived axillary odor (odor panel, magnitude estimation of perceived intensity); format: in vivo, human; conditions: for Magnitude of Reduction of Intensity of Female Stress-Derived Odor (FSDO), Males: female stress-derived odor perceived by men; for Magnitude of Reduction of Intensity of Female Stress-Derived Odor (FSDO), Females: female stress-derived odor perceived by women
Source text: as §1, §2, §3, §4
A separate panel of 24 subjects (12 males and 12 females) tested samples of female stress-derived axillary odor with potential cross-adapting agents, some of which were not included in Example 1 above. Some of the subjects assessing the effectiveness of cross-adaptation of male stress-derived axillary odor were also used in the experiment with female secretions. However, these two experiments were treated as independent events. All panel members were screened for adequate use of magnitude estimation and further trained in its use during two to three training sessions. […]

[3] = listed as E-isomer 3-methyl-2-pentenoic acid ethyl ester
Further: key: best: Best = Superior Cross-Adaptation; good: Good = Adequate Cross-Adaptation; poor: Poor = Ineffective Cross-Adaptation.

| Molecule | Magnitude of Reduction of Intensity of Male Stress-Derived Odor (MSDO), Males [1] | Magnitude of Reduction of Intensity of Male Stress-Derived Odor (MSDO), Females [1] | Magnitude of Reduction of Intensity of Female Stress-Derived Odor (FSDO), Males [2] | Magnitude of Reduction of Intensity of Female Stress-Derived Odor (FSDO), Females [2] | Magnitude of Reduction of Intensity of Male Stress-Derived Odor (MSDO), Males [1, 3] | Magnitude of Reduction of Intensity of Male Stress-Derived Odor (MSDO), Females [1, 3] |
| --- | --- | --- | --- | --- | --- | --- |
| CCCCCC1C(=O)CCC1CC(=O)OC (centres unmarked) [HEDIONE ®, methyl dihydro jasmonate] | poor | poor | poor | poor |  |  |
| CC(O)C(C)CC1C(C)CCCC1(C)C (centres unmarked) [Timbranol, Isomethyltetrahydroionol] | poor | poor |  |  |  |  |
| CC(C)=CCCC(C)CCO (centres unmarked) [Citronellol 950, 3,7-dimethyl-6-octen-1-ol] | good | good | good | good |  |  |
| CCCCCCC(C=O)=Cc1ccccc1 [Hexylcinnamic Aldehyde, alpha-hexylcinnamaldehyde] | good | good | good | poor |  |  |
| CO[C@]1(C)CC[C@@]23C[C@@H]1C(C)(C)[C@@H]2CC[C@H]3C [CEDRAMBER ®, cedryl methyl ether] | good | poor | good | good |  |  |
| isobornyl cyclohexanol | good | poor |  |  |  |  |
| CC1=CC(C)C(C=O)CC1 (centres unmarked) [Vertocitral, 2,4-dimethyl-3-cyclohexene-1-carboxaldehyde] | good | best | best | best |  |  |
| C=CCOC(=O)COC1CCCCC1 [Isoananat, allyl cyclohexyloxyacetate] | best | poor | good | poor |  |  |
| CC(C)(O)CCCC1=CCC(C=O)CC1 (centres unmarked) [Lyral, 4-(4-hydroxy-4-methylpentyl)-3-cyclohexenE-1-carboxaldehyde] |  |  | good | poor |  |  |
| CCOC(=O)C=C(C)CC (single isomer, unassigned) [E-isomer of 3-methyl-2-pentenoic acid ethyl ester, 3-methyl-2-pentenoic acid ethyl ester] | good | good | poor | poor | good | good |
| O=C1CCCCCCCC=CCCCCCCO1 [Ambrettolide, oxacycloheptadec-10-en-2-one] | poor | poor | poor | good |  |  |
| O=C1CCCC=CCCCCCCCCCC1 [GLOBANONE ®, cyclohexadecen-5-one-1] |  |  | good | poor |  |  |
| CC(C)C1CCC(C(C)O)CC1 (centres unmarked) [Mugetanol, 1-(4-isopropylcyclohexyl)ethanol] | good | poor |  |  |  |  |
| CCOc1cc(C=O)ccc1O [Ethyl Vanillin, 3-Ethoxy-4-hydroxybenzaldehyde] |  |  | best | poor |  |  |
| Cc1cccc(CC(C)(C)CO)c1 [MAJANTOL ®, 2,2-dimethyl-3-(methylphenyl)propanol] |  |  | good | poor |  |  |
| CCC(C)(O)CCCC(C)C (centres unmarked) [Tetrahydro Linalool, 3,7-Dimethyloctan-3-ol] | best | poor |  |  |  |  |
| COC(C=C(C)CCC=C(C)C)OC [Citrylal, Octa-2,6-dien; 1,1-dimethoxy-3-7-dimethyl] | best | good |  |  |  |  |
| COc1ccc(C=O)cc1 [Anisic Aldehyde, 4-methoxybenzaldehyde] |  |  | best | good |  |  |
| COC(=O)c1c(C)cc(O)c(C)c1O [Evernyl, methyl 2,4-dihydroxy-3,6-dimethylbenzoate] |  |  | poor | good |  |  |
| CC(=O)c1oc2ccccc2c1C [Nerolione, 1-(3-bethyl-2-benzofuranyl)-ethanone] | good | poor |  |  |  |  |
| C/C=C/C(=O)OC(C)C1CCCCC1 (centres unmarked) [Datilat, Cyclohexyl methyl carbinol crotonate] | poor | poor |  |  |  |  |
| CC(C=O)Cc1ccc(C(C)(C)C)cc1 (stereo not drawn) [Lilial, 4-(1,1-dimethylethyl)-alpha-methylbenzenepropanal] |  |  | good | poor |  |  |
| alpha-n-methylionone [Isoraldeine 70] |  |  | best | poor |  |  |
| CC(=O)c1cc2c(cc1C)C(C)(C)C(C)CC2(C)C (centres unmarked) [Tonalide, 7-Acetyl-1,1,3,4,4,6-hexamethyltetralin] | good | poor |  |  |  |  |
| CC=CC(=O)C1C(C)C=CCC1(C)C (centres unmarked) [Δ-Damascone, 1-(2,6,6-trimethyl-3-cyclohexen-1-yl)-2-buten-1-one] | best | good |  |  |  |  |
| CCCCCC(C)=CC(=O)OCC [E-isomer of 3-methyl-2-octenoic acid ethyl ester, 3-methyl-2-octenoic acid ethyl ester] |  |  | good | poor |  |  |
| CC(=O)C=CC1C(C)=CCCC1(C)C (stereo not drawn) [α-ionone, 4-(2,2,6-trimethyl-2cyclohexen-1-yl)-3-buten-2-one] |  |  | good | good |  |  |
| Cc1ccc2c(c1)OCC(=O)CO2 [Calone 1951, 7-methyl-314-dihydro-2H-1,5-benzodioxepin-3-one] |  |  | good | good |  |  |
